# Test results published in patent publication US20230202981A1, “NOVEL SMALL MOLECULES FOR TARGETED DEGRADATION OF UNTARGETABLE KRAS IN CANCER THERAPY” (Pillai Universal LLC, priority 2020, published 2023).
# Experiments:
# [1] = tested on: miR-30c and miR-21 in mutant KRAS; assay: miR-30c and miR-21 and tumor suppressor gene expression (microarray analysis); assay type: cell-based
# From the text: The effect of Compound 1 on the expression of miR 30c and miR-21 in mutant form of KRAS and Wild type was observed. […] Based on these observation our molecules targets miRNA in KRAS mutant model which acts as an attractive therapeutic tools in cancer medicine, because these miRNA that can silence multiple gene(s) and therefore switch off different pathways simultaneously, which is not possible with protein-based drugs and other covalent inhibitor of different KRAS mutant form, and eventually Compound 1 has no toxicity or off target effects compared to other standard drugs
# Pharmacokinetics in rats = assay type: in vivo
# KRAS mutant cell lines = assay: Apoptosis by Annexin V-FITC/PI staining and flow cytometry; assay type: cell-based; conditions: mutant cancer cells, 24 h
# Method: FIG. 6 depicts the compound I induces apoptosis in KRAS-dependent cancer cell line • FIG. 6(A)—Morphological changes after 24 h exposure to compound I ([…]) were captured by an Epifluroscent microscope with ×100 magnification, scale bar: 20 μm. • FIG. 6(B)—Cells were treated with 250 nm of Compound I for 24 h and apoptosis levels were quantitatively measured with flow cytometry after staining cells with Annexin V/propidium iodide (PI), and triplicate data were plotted as bar chart diagram. • FIG. 6(C)—Representative western blot data of different apoptosis-related protein (PARP, Bcl-2, and Bax) confirmed induction of cellular apoptosis after treatment ([…]) for 24 h. […]
# Compound 1 was subjected to cancer induced model and determined whether the observed growth inhibition was due to apoptosis or necrosis. […] Next, applying standard Annex in V-FITC/PI staining followed by flow cytometry analysis, the percentage of apoptotic and necrotic cells were quantitatively measured. […] Furthermore, to examine compound-induced apoptosis in KRAS mutant cells, the expression levels of several well-characterized apoptotic proteins were analyzed by western blotting. […] The densitometry quantitation of the ratio of Bax/Bcl2 protein expression and PARP cleavage relative to GAPHD is shown as a bar chart in […].
# [2] = Crossing blood-brain barrier: pharmacokinetics in brain regions; assay type: in vivo; set-up: AUC0-t_D: concentration or dose not given beside the values
# MDA-MB-453 = assay: IC50 of Compound 1 on breast cells (MTT assay); assay type: cell-based; conditions: Homo sapiens; MDA-MB-453 cells
# From the text: (§1) The activity of Compound 1 on various mutated EGFRs, HER2, and HER4 were examined. MTT assays, flow cytometry, and Western blotting were used to examine the effects of Compound 1 on with different genetic characteristics and relevant molecular mechanisms. Nude mouse xenograft models with cells were used to evaluate the in vim anti-tumor activity of Compound 1. […] Compound 1 blocked EGFR phosphorylation, thereby down regulating downstream PI3/AKT and MAPK/ERK signaling pathways and inducing G0/G1 arrest in different cells. […] Due to compromised homologous recombination (HR) repair, BRCA 1-and BRCA 2-mutated tumours accumulate DNA damage and genomic rearrangements conducive of tumour progression.
# MCF-7 = assay: IC50 of Compound 1 on breast cells (MTT assay); assay type: cell-based; conditions: Homo sapiens, MCF7; MCF-7 cells
# From the text: as §1
# BT-549 = assay: IC50 of Compound 1 on breast cells (MTT assay); assay type: cell-based; conditions: Homo sapiens; BT-549 cells
# From the text: as §1
# MDA-MB-468 = assay: IC50 of Compound 1 on breast cells (MTT assay); assay type: cell-based; conditions: Homo sapiens; MDA-MB-468 cells
# From the text: as §1
# T-47D = assay: IC50 of Compound 1 on breast cells (MTT assay); assay type: cell-based; conditions: Homo sapiens, T47D; T-47D cells
# From the text: as §1
# HCC1937 = assay: IC50 of Compound 1 on breast cells (MTT assay); assay type: cell-based; conditions: Homo sapiens
# From the text: as §1
# ZR-75-1 = assay: IC50 of Compound 1 on breast cells (MTT assay); assay type: cell-based; conditions: Homo sapiens; ZR-75-1 cells
# From the text: as §1
# MCF-10A = assay: IC50 of Compound 1 on breast cells (MTT assay); assay type: cell-based; conditions: Homo sapiens; MCF-10A cells
# From the text: as §1
# BT-474 = assay: IC50 of Compound 1 on breast cells (MTT assay); assay type: cell-based; conditions: Homo sapiens; BT-474 cells
# From the text: as §1
# MDA-MB-231 = assay: IC50 of Compound 1 on breast cells (MTT assay); assay type: cell-based; conditions: Homo sapiens; MDA-MB-231 cells
# From the text: as §1
# [3] = tested on: GTP-KRAS in KRAS G12C, G12V, G12D, and G13D mutant cells; assay: RAS activation assay, formation of GTP-bound KRAS in mutant cells; assay type: cell-based; conditions: 24 h
# From the text: Actually, mutant KRAS would interfere the balance between GEFs and GAPs, resulting in locking in the active GTP-bound KRAS state and aberrant stimulation of its downstream signaling.
# KRAS-driven lung tumor = assay: Tumor growth in xenograft model; assay type: in vivo
# Method: The in vivo efficacy of Compound 1 in the context of mutant KRAS was next assessed. Cells were injected into nude mice, and the tumors were allowed to grow to about 60 mm^3 in size and treated daily with Compound 1 for 14-21 days. […] At the day of harvest, the net tumor mass was determined and the average tumor weight of the Compound 1 treatment group was 89% less than the average tumor weight of the control group. […] The effect of Compound 1 treatment were further examined on KRAS-mediated RAF, MEK/ERK, and PI3K/AKT cascades in protein extracts derived from vehicle- and Compound 1-treated tumors.
smiles,measurement,setting,value
CCCCc1ncc(C(=O)C2CC=C(C(N)=O)N2)cc1C(=O)OCC (centres unmarked) [Compound 1],miR21 expression,[1]; control 0.72 ± 0.02,1.58 ± 0.32
same,miR30c expression,[1]; control 0.96 ± 0.025,1.89 ± 0.25
same,NF1 expression,[1]; control 1.56 ± 0.06,1.21 ± 0.033
same,BID expression,[1]; control 1.56 ± 0.36,0.32 ± 0.012
same,RASA1 expression,[1]; control 1.69 ± 0.36,0.32 ± 0.031
same,expression of miR 30c and miR-21,"[1]; mutant form of KRAS, microarray analysis",significantly reduced
same,Cmax,"Pharmacokinetics in rats; rat, 10 mg/kg b.wt",Cmax = 1.9 μg/mL (10 mg/kg b.wt rat)
same,T1/2,Pharmacokinetics in rats; rats,T1/2 = 9.8 h (rats)
same,T max,"Pharmacokinetics in rats; rats, 10 mg/kg b.wt","T max = 2 h (rats, 10 mg/kg, b.wt; )"
same,apoptosis compared with the untreated cells,KRAS mutant cell lines,significantly induced apoptosis
same,AUC0-t_D,[2]; Brainstem,"85.63 ± 17.43 h × ng/g/mg, h × ng/mL/mg"
same,MRTQ-t,[2]; Brainstem,5.89 ± 0.34 h
same,Tmax,[2]; Brainstem,1.35 ± 0.33 h
same,T½,[2]; Brainstem,1.81 ± 0.23 h
same,AUC0-t_D,[2]; Cortex,"152.08 ± 5.25 h × ng/g/mg, h × ng/mL/mg"
same,MRTQ-t,[2]; Cortex,6.23 ± 0.65 h
same,Tmax,[2]; Cortex,1.14 ± 0.09 h
same,T½,[2]; Cortex,5.86 ± 2.91 h
same,AUC0-t_D,[2]; Hippocampus,"58.20 ± 15.36 h × ng/g/mg, h × ng/mL/mg"
same,MRTQ-t,[2]; Hippocampus,5.18 ± 0.51 h
same,Tmax,[2]; Hippocampus,1.25 ± 1.08 h
same,T½,[2]; Hippocampus,1.19 ± 0.22 h
same,AUC0-t_D,[2]; Hypothalamus,"59.10 ± 5.06 h × ng/g/mg, h × ng/mL/mg"
same,MRTQ-t,[2]; Hypothalamus,5.25 ± 0.60 h
same,Tmax,[2]; Hypothalamus,0.54 ± 0.24 h
same,T½,[2]; Hypothalamus,1.18 ± 0.26 h
same,AUC0-t_D,[2]; Striatum,"123.81 ± 4.90 h × ng/g/mg, h × ng/mL/mg"
same,MRTQ-t,[2]; Striatum,6.75 ± 0.68 h
same,Tmax,[2]; Striatum,0.14 ± 0.09 h
same,T½,[2]; Striatum,3.45 ± 0.93 h
same,IC50,MDA-MB-453,3.65 ± 0.44 µM
same,IC50,MCF-7,2.98 ± 0.6 µM
same,IC50,BT-549,3.24 ± 0.08 µM
same,IC50,MDA-MB-468,4.21 ± 0.3 µM
same,IC50,T-47D,5.19 ± 0.28 µM
same,IC50,HCC1937,7.52 ± 1.26 µM
same,IC50,ZR-75-1,1.69 ± 0.14 µM
same,IC50,MCF-10A,106 ± 3.14 µM
same,IC50,BT-474,4.45 ± 0.1 µM
same,IC50,MDA-MB-231,4.89 ± 0.37 µM
same,formation of GTP-KRAS relative to the total amount of KRAS,[3],selectively inhibit the formation of GTP-KRAS
same,apoptotic cells by cleaved caspase-3 staining in tumors,KRAS-driven lung tumor; immunohistochemistry,prominent increase of apoptotic cells
same,cell proliferation by Ki-67 staining in tumors,KRAS-driven lung tumor; immunohistochemistry,large reduction in cell proliferation
same,body weight loss or apparent toxicity,KRAS-driven lung tumor; nude mice (n=6) after treatment,no significant body weight loss or apparent toxicity
same,tumor growth suppression compared to vehicle treated controls,"KRAS-driven lung tumor; nude mice xenograft, suppression starting at day 9",significant suppression from day 10 to day 14
same,average tumor weight less than the control group,"KRAS-driven lung tumor; nude mice, treated daily for 14-21 days, day of harvest",89%
same,"CRAF, ERK, and AKT phosphorylation in tumor protein extracts",KRAS-driven lung tumor; treated vs vehicle tumors,significant suppression
